Data reported in patent US10774082B2, “Quinazoline compound” (Astellas Pharma Inc., priority 2017, dated 2020).
Read-outs that look alike come from different tables or passages of the source.

Key:
[1] = target: T1, KRAS G12C/SOS/c-Raf complex (Homo sapiens, UniProt P01116, G12C); test: KRAS G12C/SOS/c-Raf complex formation inhibitory action (TR-FRET); assay type: biochemical; details: one hour at room temperature, read-out: IC50 (KRAS G12C/SOS/c-Raf complex formation inhibition)
T1 construct: Biotinylated AviTag-KRAS G12C (amino acid region 1-185, GDP)
Procedure: Evaluation of KRAS G12C/SOS/c-Raf Complex Formation Inhibitory Action
Human Recombinant KRAS G12C, SOS, and c-Raf protein were used, and with respect to the complex formation of these proteins, an inhibitory action of the test compound was examined through a time-resolved fluorescence resonance energy transfer (TR-FRET) method.
Biotinylated AviTag-KRAS G12C (amino acid region 1-185, GDP) (2.5 μL; 400 nM) dissolved in assay buffer (50 mM HEPES, 150 mM NaCl, 5 mM MgCl2, 0.05% Tween 20, pH 7.4) and test compound were added in a volume of 2.5 μL from 4,000 nM to 4 nM were added to 384 well plate (Corning Inc). Son of Sevenless (SOS) (amino acid region 564-1049, 2.5 μL; 1.3 μM) and c-Raf (amino acid region 51-131) GST containing GTP (Sigma-Aldrich Co. LLC) (2.5 μL; 130 nM and 4 μM of each) were added to the above mixture, and the resultant was left to stand for one hour at room temperature. Thereafter, a mixed solution (10 μL) of LANCE Ulight-anti-GST (120 nM, PerkinElmer. Co., Ltd) and LANCE Eu-W1024 labeled Streptoavidin (100 ng/mL, PerkinElmer. Co., Ltd) was added, and a fluorescence intensity on the condition of wavelength of 620 nm and 665 nm was measured by using EnVision 2103 Multilabel Reader (PerkinElmer Co., Ltd.) under the condition of excitation wavelength of 337 nm. […] In Tables, Ex represents Example numbers described later. In addition, in Tables, Compound C represents a test compound of Example I-59 disclosed in Pamphlet of International Publication No. WO 2016/164675, and the structures of Reference Example 1 and Reference Example 2 are indicated in Table 168 described below (the same shall apply hereinafter).

NCI-H1373 cells = test: Anchorage-independent cell proliferation inhibitory action, NCI-H1373 spheroid three-dimensional culture; assay type: cell-based, Human; details: Homo sapiens, NCI-H1373, 144 h, read-out: IC50 (anchorage-independent cell proliferation inhibition)
Procedure: Evaluation of Anchorage-Independent Cell Proliferation Inhibitory Action with Respect to Human KRAS G12C Mutation Positive Non-Small Cell Lung Cancer Strain NCI-H1373
An anchorage-independent cell proliferation inhibitory action by the test compound was evaluated by a spheroid three-dimensional culture.
NCI-H1373 cells were seeded in cell low adsorption U bottom 384 well plates (Prime Surface: Sumitomo Bakelite Co., Ltd.) at 36 μL/well each so as to be 5×10^2 cell per well. The cell culture was performed under the same conditions as Test example 2.
The next day, the test compounds (six points in a range of final concentration 1,000 nM to 0.3 nM) and DMSO which is a solvent of the test compound as a negative control were diluted 100-fold with fresh medium, 4 μL each was added to each well. After culturing at 37° C. in the presence of 5% CO2 for six days, 20 μL of CellTiter Glo or to CellTiter Glo 2.0 (Promega Corporation) was added to each well. After stirring for one hour at room temperature using a plate mixer (FINEPCR), an emission signal was measured with ARVO X3 (PerkinElmer Co., Ltd.).
When a signal value in a DMSO treatment was set as 0% inhibition, and a signal value in cell-free medium only was set as 100% inhibition, a value of 50% inhibition (IC50) was calculated through Sigmoid-Emax model nonlinear regression analysis.

[2] = tested on: ERK phosphorylation (Thr 202/Tyr 204) in NCI-H1373 cells; test: ERK phosphorylation inhibitory action in NCI-H1373 (Cell ELISA); assay type: cell-based, Human; details: Homo sapiens, NCI-H1373, 2 h, read-out: IC50 (ERK phosphorylation inhibition)
Procedure: Evaluation of ERK Phosphorylation Inhibitory Action with Respect to Human KRAS G12C Mutation Positive Non-Small Cell Lung Cancer Strain NCI-H1373
The ERK phosphorylation inhibitory action by the test compound was evaluated by measuring phosphorylation of 202th threonine (Thr 202) and 204th tyrosine (Tyr 204) of ERK on the downstream of the KRAS signal by Cell ELISA.
NCI-H1373 cells (ATCC, CRL-5866) were seeded in 384 well plates (Greiner bio-one) at 36 μL/well each so as to be 2×10^4 cell per well. Cell culture was performed under the conditions of temperature of 37° C. in the presence of 5% CO2 by using RPMI 1640 medium (Sigma-Aldrich Co. LLC) containing 10% fetal bovine serum (GE Life Sciences).
The next day, the test compounds (six points in a range of final concentration 1,000 nM to 0.3 nM), final concentration 1 μM of Trametinib (GlaxoSmithKline Inc.; MEK inhibitor) as a positive control, and DMSO which is a solvent of the test compound as a negative control were diluted 100-fold with fresh medium, 4 μL each was added to each well, and then cultured for 2 hours. Immediately after culturing, 30 μL of 30% glyoxal solution (Wako: 40% glyoxal diluted with Phosphate Buffered Saline (PBS; Wako)) was added to each well, and the cells were left to stand at room temperature for one hour to be fixed. Thereafter, the supernatant was removed by centrifuging the plate (110×g for 7 seconds, unless otherwise stated below under the same conditions), and 20 μL of PBS containing 0.1% Triton X-100 (Amersham Biosciences Corp.) was added to each well. After being left to stand at room temperature for 10 minutes, the supernatant was removed by centrifugation, and the same operation was repeated. Next, 20 μL of PBS containing 0.5% SDS (Invitrogen) was added to each well, and the mixture was left to stand at room temperature for 30 minutes, and then centrifuged to remove the supernatant. Subsequently, 20 μL of a blocking solution (ODYSSEY Blocking Buffer; LI-COR Biosciences) was added to each well, and left to stand at room temperature for one hour. The supernatant was removed by centrifugation, and 10 μL of a blocking solution prepared by diluting ERK (Thr 202/Tyr 204) of a phosphorylation antibody (Cell Signaling Technology, Inc.) as a primary antibody to be ½, 500 amount with respect to a stock solution was added to each well and was left to stand at 4° C. for overnight.
The next day, a reaction liquid is removed by centrifuging the plate, 20 μL of 0.05% Tween-20-containing PBS (Thermo Scientific; 20×PBS Tween-20 diluted 20-fold with ion exchanged water) was added to each well, and each well was washed by removing the supernatant by centrifugation. Washing was performed three times in total. After washing, 10 μL of a blocking solution prepared by diluting IRDye 800CW Goat anti-Rabbit IgG (LI-COR Biosciences) as a secondary antibody to be 1/1,000 amount with respect to a stock solution was added to each well and was left to stand at room temperature for one hour. The reaction liquid was removed by centrifuging the plate, and each well was washed three times with 0.05% Tween-20-containing PBS in the same manner as after primary antibody reaction. The centrifugation after the third wash was 171×g for 17 seconds. After removal of the cleaning solution, the plate was left to air dry at room temperature for three hours or more and the fluorescent signal at 800 nm was measured by Aerius (LI-COR Biosciences).
When a signal value at the time of adding DMSO was set as 0% inhibition, and a signal value at the time of adding 1 μM of Trametinib was set as 100% inhibition, a value of 50% inhibition (IC50) was calculated through Sigmoid-Emax model nonlinear regression analysis.

[3] = NCI-H1373 spheroid, six days, CellTiter Glo
[4] = NCI-H1373 cells, cultured for 2 hours, 100% = 1 μM Trametinib

T1 sequence (P01116 1-185 isoform P01116-2 G12C, one chain of several): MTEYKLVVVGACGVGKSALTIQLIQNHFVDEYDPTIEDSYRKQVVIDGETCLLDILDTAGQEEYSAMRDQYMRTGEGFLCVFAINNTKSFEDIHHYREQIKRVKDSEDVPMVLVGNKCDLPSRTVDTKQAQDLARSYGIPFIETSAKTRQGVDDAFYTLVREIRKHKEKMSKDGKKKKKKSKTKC

Compound	IC50 [1] [µM]	IC50 (NCI-H1373 cells; [3]) [µM]	IC50 [2, 4] [µM]	IC50 (NCI-H1373 cells) [µM]	IC50 [2] [µM]
C=CC(=O)N1CC2(CCN(c3nc(N4CCCN(C)CC4)nc4c(OCC(F)(F)F)c(-c5c(C)ccc6[nH]ncc56)c(C=C)cc34)CC2)C1 [Example 76]	0.043	0.025	0.015	–	–
C=CC(=O)N1CC2(CCN(c3nc(OC4CCN(C(=O)OC)CC4)nc4c(OCC(F)(F)F)c(-c5c(C)ccc6[nH]ncc56)c(C=C)cc34)CC2)C1 [Example 88]	0.148	0.09	0.019	–	–
C=CC(=O)N1CC2(CCN(c3nc(OC4CCN(C5CC5)CC4)nc4c(OCC)c(-c5c(C)ccc6[nH]ncc56)c(C5CC5)cc34)CC2)C1 [Example 43]	0.05	–	–	0.006	0.005
C=CC(=O)N1CC2(CCN(c3nc(OC4CCN(CCOC)CC4)nc4c(OCC)c(-c5c(C)ccc6[nH]ncc56)c(C=C)cc34)CC2)C1 [Example 13]	0.037	–	–	0.013	0.011
C=CC(=O)N1CC2(CCN(c3nc(OC[C@@H]4CCCN4C)nc4c(OCC(F)F)c(-c5c(C)ccc6[nH]ncc56)c(C=C)cc34)CC2)C1 [Example 14]	0.05	–	–	0.0088	0.0061
C=CC(=O)N1CC2(CCN(c3nc(OC4CCN(C)CC4)nc4c(OCc5ccccc5)c(-c5c(C)ccc6[nH]ncc56)c(C=C)cc34)CC2)C1 [Example 61]	0.056	0.017	0.0088	–	–
C=CC(=O)N1CC2(CCN(c3nc(N4CCN(CCOC)CC4)nc4c(OCC(F)(F)F)c(-c5c(C)ccc6[nH]ncc56)c(C=C)cc34)CC2)C1 [Example 59]	0.063	0.026	0.0084	–	–
C=CC(=O)N1CC2(CCN(c3nc(OC4CCN(S(C)(=O)=O)CC4)nc4c(OCC(F)(F)F)c(-c5c(C)ccc6[nH]ncc56)c(C=C)cc34)CC2)C1 [Example 86]	0.072	0.037	0.012	–	–
C=CC(=O)N1CC2(CCN(c3nc(OC4CCN(CC5CCOCC5)CC4)nc4c(OCC(F)(F)F)c(-c5c(C)ccc6[nH]ncc56)c(C=C)cc34)CC2)C1 [Example 44]	0.041	–	–	0.0076	0.0051
C=CC(=O)N1CC2(CCN(c3nc(SC4CCN(C)CC4)nc4c(OCC(F)(F)F)c(-c5c(C)ccc6[nH]ncc56)c(C=C)cc34)CC2)C1 [Ex 51]	0.059	0.024	0.0089	–	–

More lines, main results first:

IC50 [1] [µM]	IC50 (NCI-H1373 cells; [3]) [µM]	IC50 [2, 4] [µM]	Compound	IC50 (NCI-H1373 cells) [µM]	IC50 [2] [µM]
0.043	0.062	0.016	COCCN1CCC(Oc2nc(N3CCC4(CC3)CN(C(=O)/C=C/C(F)(F)F)C4)c3cc(C4CC4)c(-c4c(C)ccc5[nH]ncc45)c(OCC(F)F)c3n2)CC1 [Ex 82]	–	–
0.056	0.032	0.016	C=CC(=O)N1CC2(CCN(c3nc(OC4CCN(CCOC)CC4)nc4c(OCC(F)(F)F)c(-c5c(C)ccc6[nH]nc(Cl)c56)c(C=C)cc34)CC2)C1 [Example 77]	–	–
0.083	0.043	0.0074	C=CC(=O)N1CC2(CCN(c3nc(OC4CCN(C(CF)CF)CC4)nc4c(OCC(F)(F)F)c(-c5c(C)ccc6[nH]ncc56)c(C=C)cc34)CC2)C1 [Example 55]	–	–
0.041	0.024	0.014	C=CC(=O)N1CC2(CCN(c3nc(OC4CCN(C5CCN(C)CC5)CC4)nc4c(OCC(F)(F)F)c(-c5c(C)ccc6[nH]ncc56)c(C=C)cc34)CC2)C1 [Example 72]	–	–
0.046	0.0073	0.0059	C=CC(=O)N1CC2(CCN(c3nc(OC4CCN(CC)CC4)nc4c(OCC)c(-c5c(C)ccc6[nH]ncc56)c(C5CC5)cc34)CC2)C1 [Example 18]	–	–
0.098	0.035	0.0088	C=CC(=O)N1CC2(CCN(c3nc(OC4CCN(CCC(F)(F)F)CC4)nc4c(OCC(F)(F)F)c(-c5c(C)ccc6[nH]ncc56)c(C=C)cc34)CC2)C1 [Example 60]	–	–
0.053	0.014	0.0066	C=CC(=O)N1CC2(CCN(c3nc(OC4CCN(C)CC4)nc4c(OCC(C)(F)F)c(-c5c(C)ccc6[nH]ncc56)c(C=C)cc34)CC2)C1 [Example 63]	–	–
0.05	0.017	0.012	C=CC(=O)N1CC2(CCN(c3nc(OC4CCCN(C)CC4)nc4c(OCC(F)(F)F)c(-c5c(C)ccc6[nH]ncc56)c(C=C)cc34)CC2)C1 (centres unmarked) [Example 69]	–	–
0.057	0.043	0.016	C=CC(=O)N1CC2(CCN(c3nc(OC4CCN(CCOC)CC4)nc4c(OCC(F)(F)C(F)(F)F)c(-c5c(C)ccc6[nH]ncc56)c(C=C)cc34)CC2)C1 [Example 79]	–	–
0.021	–	–	C=CC(=O)N1CC2(CCN(c3nc(OC4CCN(CCOC)CC4)nc4c(OCC(F)(F)F)c(-c5c(C)ccc6[nH]ncc56)c(C=C)cc34)CC2)C1 [Ex 36]	–	–
0.015	–	–	C=CC(=O)N1CC2(CCN(c3nc(OC4CCN(CCCOC)CC4)nc4c(OCC(F)(F)F)c(-c5c(C)ccc6[nH]ncc56)c(C5CC5)cc34)CC2)C1 [Ex 38]	–	–
